Test results published in patent publication US12084680B2, “Methods for efficient derivation of human motor neurons from diverse spinal regions” (Wisconsin Alumni Research Foundation, priority 2016, dated 2024).

Columns and labels:
Type in all cases: cell-based, human
H9 hESCs [1] = experiment: NKX6.1 induction in neurally differentiating H9 hESCs after 24 h treatment (flow cytometry, RT-PCR, day 3)
Method: (§1) NKX6.1 is the earliest expressed marker in the motor neuron development cascade in vivo, so we examined its expression in response to Wnt/β-catenin, RA, and SHH signaling during hPSC motor neuron differentiation. H9 hESCs were differentiated in E6 medium for 2 days to initiate neural fate acquisition34 and then treated with combinations of RA, purmorphamine (PM, a small molecule agonist of SHH signaling), and CHIR for 24 h (FIG. 4A). […] Using the H9 ishcat2 line, we observed that CHIR-mediated induction of NKX6.1 was β-catenin-dependent, as the optimal 3 days of shRNA-mediated CTNNB1 knockdown upstream of CHIR treatment was required to maximally reduce NKX6.1 induction to 44±1% (FIG. 4E). The correlation between NKX6.1 knockdown and days of doxycycline treatment was presumably due to the time delay for shRNA synthesis and subsequent gene knockdown in Tet-on systems. […] Exogenously added WNT3A (200 ng/mL) could also induce NKX6.1 expression (60±14%) (FIG. 4G), providing further evidence for the involvement of Wnt/β-catenin signaling in this process. In contrast, simultaneous treatment with CHIR and BMP4 (200 ng/mL), a dorsal patterning factor, reduced the expression of NKX6.1 from 91±1% to 68±2% (FIG. 4H).
(§2) hESCs were dissociated with accutase (Thermo Fisher Scientific) and reseeded at 1×10^5 cells/cm2 in E8 medium containing 10 μM ROCK inhibitor (Y27632; R&D Systems) on 6-well polystyrene tissue culture plates coated with 100 μg/mL poly-L-ornithine (PLO; Sigma) and 8 μg/well VTN-NC. The timelines and relevant growth factors/small molecules for all differentiation procedures are described in detail in the Results section and its accompanying figures. Cells were differentiated for various amounts of time in E6 medium containing the same insulin concentration as E8 medium as described above with varying combinations of soluble factors (product information and concentration ranges are found in Table 2). For neuromesodermal induction and HOX propagation, cells were sequentially cultured with FGF8b, CHIR99021 (CHIR), GDF11, and dorsomorphin (DM) as previously described. Briefly, to initiate the neuromesodermal state, cells were changed to E6 medium followed by addition of FGF8b (200 ng/ml) 24 h later. To generate cervical neuromesodermal progenitors, cells were washed with PBS, treated with accutase, and re-seeded in E6 medium containing 200 ng/ml FGF8b, 3 μM CHIR, and 10 μM Y27632 on VTN-NC-coated plates at a density of 1.5×10^5 cells/cm^2 for 48 h. To generate thoracic neuromesodermal progenitors, cells were passaged again after 72 h of CHIR treatment and re-seeded at different densities as described in the text.
Thoracic identity was reached after an additional 24 h. Then, to reach the lumbosacral level, cells were given 30 ng/ml GDF11 and 1 μM DM for an additional 48 h. For neuroectoderm induction and generation of OLIG2^+ progenitors, FGF8b was removed at the designated time points and the concentration of CHIR was increased for 6 h as described in the text, followed by a transition to media containing RA, PM, and SHH for a period of 48 h. For differentiation of the OLIG2^+ progenitors to motor neurons, cells were subcultured by en bloc passage using a cell scraper, reseeded at a 1:200 ratio in Matrigel-coated 8-well chamber slides, and differentiated for 14 days in E6 medium containing 1 μM RA, 100 nM PM, and 100 ng/mL SHH, with media exchange every 3 days (10 μM Y27632 was included during the en bloc passaging step and removed after the first media exchange). For differentiation of lumbar cultures, 1 μM DM was included in all steps. For the myoblast co-culture experiments, OLIG2^+ cultures were en bloc passaged, frozen in E6 medium containing 10% DMSO, shipped to a different location, and thawed 1:10 in 6-well plates under the same conditions as described in FIG. 5. To facilitate neuronal maturation prior to myoblast co-culture, 5 μM DAPT (Tocris) was added from days 8-14 post-thaw. […]

H9 ishcat2 hESC line = experiment: Doxycycline-inducible shRNA knockdown of β-catenin (CTNNB1) during motor neuron differentiation; settings: doxycycline 2 μg/mL
Method: In the ventral neural tube, SHH signaling generates OLIG2^+ motor neuron progenitors that subsequently mature into post-mitotic ISL1^+ and/or HB9^+ motor neurons. To probe the role of Wnt/β-catenin signaling during this process in vitro, we utilized the H9 ishcat2 hESC line, which harbors a doxycycline-inducible shRNA against CTNNB1.
Similarly, we induced β-catenin knockdown while differentiating the hESCs into motor neurons via E6 neural induction with RA (1 μM), purmorphamine (PM, a small molecule agonist of sonic hedgehog signaling; 100 nM), and neurotrophic factor treatment, as previously described (FIG. 3A).
as §1
hESCs were maintained on Matrigel (BD Biosciences) in E8 medium but with 10-fold lower insulin concentration (2 mg/L). Cell lines used in this study were H9 hESCs (passage 25-45) and H9 ishcat2 hESCs (passage 35-45). […]

H9 hESCs [2] = experiment: Differentiation of cervical OLIG2+ progenitors to post-mitotic motor neurons (immunocytochemistry, flow cytometry); settings: 20 total days of differentiation, SHH, or SAG 2 μM instead of SHH
Excerpt: Having optimized the efficiency of OLIG2 induction at diverse spinal cord regions, next region-specific post-mitotic motor neurons were generated. Cervical OLIG2^+ motor neuron progenitors were en bloc passaged and gradually differentiated to ISL1^+ motor neurons over a 14-day period (FIGS. 7A-7B). […] The extensive co-labeling of ISL1^+ cells with SMI32-reactive non-phosphorylated neurofilament heavy chain is indicative of motor neuron identity. Widespread HB9/βIII-tubulin motor neuron expression was also observed throughout the cultures (FIG. 7C). Since spinal motor neurons in vivo are observed to be both ISL1^+, ISL1^+/HB9^+, and HB9^+ but are all SMI32 reactive, flow cytometry of the SMI32^+ cells is proposed to best represent the total percentage of motor neurons in each culture. Moreover, the use of SAG (2 μM), a small molecule Smoothened agonist45, instead of SHH yielded similar efficiencies (72±4% SMI32^+, 63±13% ISL1^+, and 65±15% HB9^+) (FIG. 7C). High efficiencies were also observed for thoracic cultures, whereas lumbar cultures saw a ˜10% decrease in efficiency (FIG. 7C). For all regions, ISL1^+ motor neurons predominantly co-labeled with FOXP1 (70-80% in cervical motor neurons and 40-60% in thoracic and lumbar motor neurons) versus LHX3 markers (20-30% in cervical and thoracic cultures and 15-20% in lumbar cultures) (FIG. 7C). […] These trends agree with the observed distribution of columnar motor neuron phenotype in the cervical, thoracic and lumbar spinal cord in vivo, and it is consistent with our prior observations of motor neuron populations derived using the deterministic HOX patterning protocol.
(§3) Thoracic identity was reached after an additional 24 h. Then, to reach the lumbosacral level, cells were given 30 ng/ml GDF11 and 1 μM DM for an additional 48 h. For neuroectoderm induction and generation of OLIG2^+ progenitors, FGF8b was removed at the designated time points and the concentration of CHIR was increased for 6 h as described in the text, followed by a transition to media containing RA, PM, and SHH for a period of 48 h. […]

H9 hESCs [3] = experiment: Induction of NKX6.1+/PAX6+/OLIG2+ motor neuron progenitors from cervical neuromesoderm (flow cytometry, immunocytochemistry); settings: RA 1 μM for 2 days without PM or SHH, day 6
Method: To begin, we sequentially differentiated H9 hESCs in E6 media for 1 day, and FGF8b (200 ng/mL) for 1 day, and FGF8b and CHIR (3 μM) for 2 days to generate cervical neuromesoderm (FIGS. 5A-5B). Then, we screened the effects of CHIR, PM, and SHH treatment on NKX6.1^+/PAX6^+/OLIG2^+ motor neuron progenitor induction while transitioning to media containing 1 μM RA (FIGS. 5A-5D). Prior to the addition of RA, NKX6.1 was expressed in the cervical neuromesodermal state at day 4 (80±18% NKX6.1^+; data not shown), likely due to the CHIR-induced Wnt/β-catenin signaling (FIGS. 4A-4H). Transitioning the neuromesodermal progenitors to RA-containing media for 2 days induced HOXB4^+/HOXC6^+/HOXC9^−/HOXD10^−/PAX6^+ cervical neuroectoderm in all conditions (FIGS. 5B-5C), as expected. However, without co-activation of SHH signaling by PM or SHH, NKX6.1 expression was quickly lost by day 6 (97±1% PAX6^+, 17±3% NKX6.1^+) (FIG. 5C). […] To bolster this claim, we also analyzed the abundance of full-length GLI3 versus its truncated repressor form by western blot. […] Thus, Wnt/β-catenin signaling is necessary to induce ventral identity, but its continuous activation during OLIG2 induction by SHH signaling is detrimental to motor neuron differentiation, possibly due to activation of the GLI3 repressor.
Next, we tested conditions where CHIR was removed after transitioning to media containing RA (1 μM), PM (2 μM), and SHH (2 μg/mL) (FIGS. 5A-5C).
Since NKX6.1 is a pre-requisite to OLIG2 expression, we hypothesized that the Wnt/β-catenin signaling-dependent NKX6.1 expression levels may still be too low for efficient OLIG2^+ motor neuron progenitor induction. Therefore, the concentration of CHIR was boosted to 6 or 9 μM for 6 h immediately prior to transitioning to E6 medium containing RA, PM, and SHH without CHIR (FIG. 5A). The 9 μM CHIR boost followed by a transition to media containing 1 μM RA, 2 μM PM, and 2 μg/mL SHH yielded optimal motor neuron progenitor cultures with highly uniform NKX6.1, OLIG2, and PAX6 expression (96±1%, 85±9%, and 97±2%, respectively) (FIGS. 5C-5D).
as §2, §3

Question: With `c1ccc2c(Oc3nc(Nc4ccc(N5CCOCC5)cc4)c4ncn(C5CCCCC5)c4n3)cccc2c1` [PM, Purmorphamine] as the molecule, how does the “NKX6.1 induction within 24 h” value (H9 hESCs [1]; combined RA 1 μM and PM 1 μM, no CHIR) read?
Answer: The value was “did not induce NKX6.1”.

Question: Which “reduction of CTNNB1 expression (qPCR relative to RPS18)” value (H9 ishcat2 hESC line; day 3) does the source give for `C[C@H]1c2cccc(O)c2C(=O)C2=C(O)[C@]3(O)C(=O)C(C(N)=O)=C(O)[C@@H](N(C)C)[C@@H]3[C@@H](O)[C@@H]21` [Doxycycline] here?
Answer: Its value is 87%.

Question: And the “NKX6.1 expression (flow cytometry)” value (H9 ishcat2 hESC line; β-catenin knockdown, day 16)?
Answer: Its value is 2±1%.

Question: With `CC1=C2C[C@H]3[C@@H](CC=C4C[C@@H](O)CC[C@@]43C)[C@@H]2CC[C@]12O[C@@H]1C[C@H](C)CN[C@H]1[C@H]2C` [Cyclopamine] as the molecule, how does the “NKX6.1 expression (flow cytometry)” value (H9 hESCs [1]; CHIR 6 μM plus Cyclopamine 5 μM, 24 h) read?
Answer: Its value is “did not diminish NKX6.1 expression”.

Question: What does the source list for `CNC1CCC(N(Cc2cccc(-c3ccncc3)c2)C(=O)c2sc3ccccc3c2Cl)CC1` (centres unmarked) [SAG]?
Answer: HB9+ cells (H9 hESCs [2]): 65±15%; ISL1+ cells (H9 hESCs [2]): 63±13%; SMI32+ cells (H9 hESCs [2]): 72±4%

Question: What does the source list for `CC1=C(/C=C/C(C)=C/C=C/C(C)=C/C(=O)O)C(C)(C)CCC1` [RA, Retinoic acid]?
Answer: NKX6.1+ cells (H9 hESCs [3]): 17±3%; PAX6+ cells (H9 hESCs [3]): 97±1%

B1: WNT3A: soluble WNT3A, Wnt polypeptide ligand activating Wnt/β-catenin signaling (protein, UniProt P56704 19-352, looked up)
Protein Wnt-3a: SYPIWWSLAVGPQYSSLGSQPILCASIPGLVPKQLRFCRNYVEIMPSVAEGIKIGIQECQHQFRGRRWNCTTVHDSLAIFGPVLDKATRESAFVHAIASAGVAFAVTRSCAEGTAAICGCSSRHQGSPGKGWKWGGCSEDIEFGGMVSREFADARENRPDARSAMNRHNNEAGRQAIASHMHLKCKCHGLSGSCEVKTCWWSQPDFRAIGDFLKDKYDSASEMVVEKHRESRGWVETLRPRYTYFKVPTERDLVYYEASPNFCEPNPETGSFGTRDRTCNVSSHGIDGCDLLCCGRGHNARAERRREKCRCVFHWCCYVSCQECTRVYDVHTCK
Question: With B1 as the molecule, how does the “NKX6.1 expression (flow cytometry)” value (H9 hESCs [1]; WNT3A 200 ng/mL, day 3) read?
Answer: The value was 60±14%.

B2: BMP4: a dorsal patterning factor (protein, UniProt P12644 293-408, looked up)
Bone morphogenetic protein 4: SPKHHSQRARKKNKNCRRHSLYVDFSDVGWNDWIVAPPGYQAFYCHGDCPFPLADHLNSTNHAIVQTLVNSVNSSIPKACCVPTELSAISMLYLDEYDKVVLKNYQEMVVEGCGCR
Question: With B2 as the molecule, how does the “NKX6.1 expression (flow cytometry)” value (H9 hESCs [1]; simultaneous CHIR 4 μM and BMP4 200 ng/mL, day 3) read?
Answer: Its value is 68±2%.
